Measurements published in DBAASP.
Values after ≈ are worked out from the molar mass of the structure shown. Values joined by “and” are separate entries in the source; they are usually repeats but may differ in a detail not shown here. Identical values can stand only once. Blank lines part the entries; values can stand above or below the molecule they belong to.

Tests used:
Test in all cases: ≥ marks a high value that may be exact or a test limit, other limits are often not marked, values filed in µg/mL are converted to µM
Enterococcus faecium = system: Enterococcus faecium
[1] = system: Enterococcus casseliflavus
[2] = system: Bacillus subtilis KCTC 3038
[3] = system: Escherichia coli ATCC 27325
[4] = system: Saccharomyces cerevisiae ATCC 44774
Staphylococcus aureus = system: Staphylococcus aureus
Enterococcus gallinarum = system: Enterococcus gallinarum
[5] = system: Salmonella typhimurium KCTC 2370
[6] = system: Enterococcus faecalis ATCC 29212
[7] = system: Streptococcus pneumoniae DSM 11865
[8] = system: Staphylococcus aureus ATCC 25923
[9] = system: Escherichia coli DSM 1103
[10] = system: Klebsiella pneumoniae DSM 681
[11] = system: Pseudomonas aeruginosa DSM 1128
Alternaria alternata = system: Alternaria alternata
[12] = system: Clavibacter michiganensis subsp. michiganensis DSM 46294
[13] = system: Xanthomonas vesicatoria DSM 50861
Botrytis cinerea = system: Botrytis cinerea
[14] = system: Staphylococcus aureus 90857
[15] = system: Pseudomonas corrugata DSM 7228
[16] = system: Pseudomonas syringae pv. tomato DC3000
[17] = system: Pseudomonas syringae pv. syringae DSM 10604
[18] = system: Pectobacterium carotovorum subsp. carotovorum DSM 30168
Cladosporium herbarum = system: Cladosporium herbarum
[19] = system: Staphylococcus aureus ATCC 43300
[20] = system: Staphylococcus aureus USA 200
[21] = system: Staphylococcus aureus ATCC 6538
[22] = system: Pseudomonas aeruginosa 1125
[23] = system: Staphylococcus aureus USA 300
[24] = system: Staphylococcus aureus ATCC BAA-44
[25] = system: Pseudomonas aeruginosa ATCC BAA-1744
[26] = system: Pseudomonas aeruginosa 1017
[27] = system: Pseudomonas aeruginosa 1109
[28] = system: Staphylococcus aureus NRS 19
[29] = system: Pseudomonas aeruginosa ATCC 9721
[30] = system: Acinetobacter baumannii ATCC BAA-747
[31] = system: Staphylococcus aureus RN4220
[32] = system: Pseudomonas aeruginosa ATCC 15442
[33] = system: Pseudomonas aeruginosa ATCC 35032
[34] = system: Acinetobacter baumannii NR-13375
[35] = system: Acinetobacter baumannii NR-9667
[36] = system: Staphylococcus aureus NRS 1
[37] = system: Acinetobacter baumannii ATCC 19606
[38] = system: Staphylococcus aureus USA 100
[39] = system: Staphylococcus epidermidis NRS 101
[40] = system: Pseudomonas aeruginosa 16011
[41] = system: Pseudomonas aeruginosa ATCC 9027
[42] = system: Acinetobacter baumannii ATCC BAA-1605
[43] = system: Pseudomonas aeruginosa ATCC 10145
[44] = system: Staphylococcus aureus VRSA1
[45] = system: Pseudomonas aeruginosa ATCC 25619
[46] = system: Pseudomonas aeruginosa ATCC 27853
[47] = system: Staphylococcus aureus NRS 72
Xanthomonas citri = system: Xanthomonas citri
Methylobacterium sp. = system: Methylobacterium sp.
[48] = system: Sinorhizobium meliloti USDA 1002

MIC (Enterococcus faecium): 2.23 µM (≈ 4 µg/mL)
MIC [1]: 1.12 µM (≈ 2 µg/mL)
MIC [2]: 8.94 µM (≈ 16 µg/mL)
MIC [3]: 17.9 µM and ≥ 35.8 µM
MIC [4]: 1.12 µM (≈ 2 µg/mL)
MIC (Staphylococcus aureus): > 35.8 µM
MIC (Enterococcus gallinarum): ≥ 35.8 µM
MIC [5]: ≥ 35.8 µM
MIC [6]: 4.47 µM (≈ 8 µg/mL)
SMILES: CC(C)[C@H](NC(=O)[C@H](CCCCN)NC(=O)[C@H](CCC(N)=O)NC(=O)[C@H](CCCCN)NC(=O)[C@@H](NC(=O)[C@@H](NC(=O)[C@H](CCC(N)=O)NC(=O)[C@@H](NC(=O)[C@@H](NC(=O)[C@@H]1CCCN1C(=O)[C@H](CCCN=C(N)N)NC(=O)[C@@H](NC(=O)[C@@H](NC(=O)[C@@H](N)CCCN=C(N)N)C(C)C)C(C)C)C(C)C)C(C)C)C(C)C)C(C)C)C(=O)N[C@@H](CCCN=C(N)N)C(=O)O [RVVRPVVQVVKQKVR]

MIC [7]: ≥ 140 µM
MIC [8]: 70.1 µM (≈ 150 µg/mL)
MIC [9]: ≥ 140 µM
MIC [10]: ≥ 140 µM
MIC [11]: ≥ 140 µM
SMILES: CC(C)C[C@H](NC(=O)[C@@H](NC(=O)[C@H](C)NC(=O)[C@H](Cc1c[nH]c2ccccc12)NC(=O)[C@H](CCCN=C(N)N)NC(=O)CNC(=O)CNC(=O)[C@H](CCCN=C(N)N)NC(=O)[C@@H](NC(=O)[C@H](CCCN=C(N)N)NC(=O)[C@H](Cc1c[nH]c2ccccc12)NC(=O)[C@H](Cc1ccc(O)cc1)NC(=O)[C@H](Cc1ccc(O)cc1)NC(=O)[C@H](CCCCN)NC(=O)[C@H](CCC(N)=O)NC(=O)[C@@H](N)CC(C)C)C(C)C)C(C)C)C(=O)N[C@@H](CO)C(=O)O [LQKYYWRVRGGRWAVLS]

MIC (Alternaria alternata): ≥ 64.3 µM
MIC [12]: 6.43 µM (≈ 9.99 µg/mL)
MIC [13]: 3.21 µM (≈ 5 µg/mL)
MIC (Botrytis cinerea): ≥ 64.3 µM
MIC [14]: 1.5 µM (≈ 2.33 µg/mL)
MIC [15]: 12.9 µM (≈ 20 µg/mL)
MIC [16]: 6.43 µM (≈ 9.99 µg/mL)
MIC [17]: 6.43 µM (≈ 9.99 µg/mL)
MIC [18]: 12.9 µM (≈ 20 µg/mL)
MIC (Cladosporium herbarum): 6.43 µM (≈ 9.99 µg/mL)
SMILES: CC[C@H](C)[C@H](NC(=O)[C@H](CCCCN)NC(=O)[C@H](CCCCN)NC(=O)[C@H](CC(C)C)NC(=O)[C@H](Cc1ccccc1)NC(=O)[C@H](CCCN=C(N)N)NC(=O)[C@@H](N)CC(C)C)C(=O)N[C@@H](CC(C)C)C(=O)N[C@@H](CCCCN)C(=O)N[C@@H](Cc1cnc[nH]1)C(=O)N[C@@H](CC(C)C)C(=O)N[C@@H](Cc1ccccc1)C(N)=O [LRFLKKILKHLF]

MIC [19]: 4 µM (≈ 7.47 µg/mL)
MIC [20]: 4 µM (≈ 7.47 µg/mL)
MIC [21]: 2 µM (≈ 3.73 µg/mL)
MIC [22]: 8 µM (≈ 14.9 µg/mL)
MIC [23]: 4 µM (≈ 7.47 µg/mL)
MIC [24]: 4 µM (≈ 7.47 µg/mL)
MIC [25]: 8 µM (≈ 14.9 µg/mL)
MIC [26]: ≥ 32 µM
MIC [27]: 4 µM (≈ 7.47 µg/mL)
MIC [28]: 4 µM (≈ 7.47 µg/mL)
MIC [29]: 8 µM (≈ 14.9 µg/mL)
MIC [30]: 2 µM (≈ 3.73 µg/mL)
MIC [31]: 4 µM (≈ 7.47 µg/mL)
MIC [32]: 8 µM (≈ 14.9 µg/mL)
MIC [33]: 8 µM (≈ 14.9 µg/mL)
MIC [34]: 2 µM (≈ 3.73 µg/mL)
MIC [35]: 4 µM (≈ 7.47 µg/mL)
MIC [36]: 2 µM (≈ 3.73 µg/mL)
MIC [37]: 2 µM (≈ 3.73 µg/mL)
MIC [38]: 2 µM (≈ 3.73 µg/mL)
MIC [39]: 2 µM (≈ 3.73 µg/mL)
MIC [40]: 16 µM (≈ 29.9 µg/mL)
MIC [41]: 4 µM (≈ 7.47 µg/mL)
MIC [42]: 2 µM (≈ 3.73 µg/mL)
MIC [43]: 8 µM (≈ 14.9 µg/mL)
MIC [44]: 4 µM (≈ 7.47 µg/mL)
MIC [45]: 8 µM (≈ 14.9 µg/mL)
MIC [46]: 8 µM (≈ 14.9 µg/mL)
MIC [47]: 4 µM (≈ 7.47 µg/mL)
SMILES: CC[C@H](C)[C@H](NC(=O)[C@H](CCCN=C(N)N)NC(=O)[C@H](CCCN=C(N)N)NC(=O)[C@H](CC(C)C)NC(=O)[C@H](Cc1c[nH]c2ccccc12)NC(=O)[C@H](C)NC(=O)[C@H](CCCCN)NC(=O)[C@@H](NC(=O)[C@H](CCCN=C(N)N)NC(=O)[C@H](CCCN=C(N)N)NC(=O)[C@H](CC(C)C)NC(=O)[C@@H](N)Cc1c[nH]c2ccccc12)[C@@H](C)CC)C(=O)N[C@@H](CCCCN)C(=O)N[C@@H](C)C(=O)O [WLRRIKAWLRRIKA]

MIC (Xanthomonas citri): 2 µM (≈ 4.13 µg/mL)
MIC (Methylobacterium sp.): 4 µM (≈ 8.27 µg/mL)
MIC [48]: 4 µM (≈ 8.27 µg/mL)
SMILES: CC[C@H](C)[C@H](NC(=O)[C@H](C)NC(=O)CNC(=O)[C@H](Cc1ccccc1)NC(=O)[C@@H](NC(=O)[C@@H](N)CCCCN)[C@@H](C)CC)C(=O)N[C@@H](Cc1c[nH]c2ccccc12)C(=O)N1CCC[C@H]1C(=O)N[C@@H](CC(C)C)C(=O)N[C@@H](C)C(=O)N[C@@H](CC(C)C)C(=O)NCC(=O)N[C@@H](C)C(=O)N[C@@H](CC(C)C)C(=O)N[C@@H](CCCCN)C(=O)N[C@@H](CC(N)=O)C(=O)N[C@@H](CC(C)C)C(=O)N[C@H](C(=O)N[C@@H](CCCCN)C(=O)O)[C@@H](C)CC [KIFGAIWPLALGALKNLIK]
